# Reference: patent publication US10028916B2, “Orally disintegrating dosage form for administration of avanafil, and associated methods of manufacture and use” (Vivus, Inc., priority 2014, dated 2018)
# Where two headings read alike, the source gives them in different places.
# Columns and labels:
# [1] = Aqueous solubility of avanafil by HPLC at a range of pH values; assay type: physicochemical; conditions: thermodynamic from solid
# Procedure: A high performance liquid chromatography (HPLC) procedure was used to evaluate the aqueous solubility of avanafil (obtained from Tanabe Seiyaku Co., LTD, purity, 97.0% to 103% with an observed purity of 98.89%; particle diameter, 10-20 microns with median observed particle diameter of 18.47 microns) at a range of pH values. The HPLC conditions were as follows: system, HP Model 1100; analytical column, Supelco Kromasil C8, 4.6 mm×250 mm, 5 μm particle size; assay injection volume, 20 μl; stock stability injection volume, 0.5 μl; needle wash volume, 91 μl; mobile phase flow rate, 1.00 ml/minute; column temperature, 30° C.; detection wavelength 246 nm; flow cell path length, 10 mm; range step 2.00 nm; threshold, 1.00 mAU; stop time, 30 minutes. Solutions 1, 2, 3, 6, 7, 8, 11, and 12 were buffered to pH values of 0.99, 2.00, 3.00, 6.00, 7.00, 8.00, 11.0, and 12.0, respectively, using a phosphate buffer, 0.1M KH2PO4. Solutions 4 and 5 were buffered to pH values of 4.00 and 5.00, respectively, using a sodium acetate buffer, 0.1M NaOAc, while solutions 9 and 10 were respectively buffered to pH values of 9.00 and 10.00 using a sodium carbonate buffer, 0.1M Na2CO3.
# [2] = as above; assay type: physicochemical; conditions: sodium carbonate buffer, thermodynamic from solid, Solution 10, 0.1N Na2CO3, pH 10.0
# [3] = cited from earlier work
smiles,measurement,setting,value
"COc1ccc(CNc2nc(N3CCC[C@H]3CO)ncc2C(=O)NCc2ncccn2)cc1Cl [avanafil, 4-[(3-chloro-4-methoxybenzyl)amino]-2-[2-(hydroxymethyl)-1-pyrrolidinyl]-N-(2-pyrimidinylmethyl)-5-pyrimidinecarboxamide]",solubility,"[1]; phosphate buffer, aqueous buffer, Solution 1, 0.1M KH2PO4, pH 0.999",> 199000 µg/mL
same,solubility,"[1]; phosphate buffer, aqueous buffer, Solution 2, 0.1M KH2PO4, pH 2.00",35000 µg/mL
same,solubility,"[1]; phosphate buffer, aqueous buffer, Solution 3, 0.1M KH2PO4, pH 3.00",1700 µg/mL
same,solubility,"[1]; phosphate buffer, aqueous buffer, Solution 6, 0.1M KH2PO4, pH 6.00",1.28 µg/mL
same,solubility,"[1]; phosphate buffer, aqueous buffer, Solution 7, 0.1M KH2PO4, pH 7.00",0.233 µg/mL
same,solubility,"[1]; phosphate buffer, aqueous buffer, Solution 8, 0.1M KH2PO4, pH 8.00",0.052 µg/mL
same,solubility,"[1]; phosphate buffer, aqueous buffer, Solution 11, 0.1M KH2PO4, pH 11.0",0.0568 µg/mL
same,solubility,"[1]; phosphate buffer, aqueous buffer, Solution 12, 0.1M KH2PO4, pH 12.0",< 0.05 µg/mL
same,solubility,"[1]; sodium acetate buffer, aqueous buffer, Solution 4, 0.1M NaOAc, pH 4.00",344 µg/mL
same,solubility,"[1]; sodium acetate buffer, aqueous buffer, Solution 5, 0.1M NaOAc, pH 5.00",19.5 µg/mL
same,solubility,"[1]; sodium carbonate buffer, aqueous buffer, Solution 9, 0.1M Na2CO3, pH 9.00",< 0.05 µg/mL
same,solubility,"[1]; water, ASTM Type II H2O, no buffer",0.139 µg/mL
same,solubility,[2],< 0.05 µg/mL
same,mean reduction in Cmax,[3]; 100 mg with a high fat meal,24%
same,mean reduction in Cmax,[3]; 200 mg with a high fat meal,39%
same,route of clearance,"[3]; result in words, mainly CYP3A4, minor extent CYP2C isoform",cleared predominantly by hepatic metabolism
same,decrease in AUC,[3]; taken with a high fat meal,~3.8%
